Results from paper PMC3252304, “Hydroxybenzothiazoles as New Nonsteroidal Inhibitors of 17β-Hydroxysteroid Dehydrogenase Type 1 (17β-HSD1)” (PLoS ONE, 2012).

Assays:
human 17β-HSD1 = molecular target: T1, human 17β-HSD1 (Homo sapiens, UniProt P14061); assay: 17β-HSD1 cell free assay (placental cytosolic enzyme, [3H]E1 to E2, HPLC radiodetection); type: biochemical; details: for IC50 / inhibition at 1 µM / 17β-HSD1 % inhib. (1µM): human placenta cytosolic fraction, [3H]E1 + E1 500 nM, NADH 500 µM; for IC50: mean of three determinations; for inhibition at 1 µM / 17β-HSD1 % inhib. (1µM): inhibitor 1 µM, less than 10% = inactive, ni = no inhibition; for inhibition at 1 µM: read-out: 17β-HSD1 % inhib. (1µM)
T1 construct: In the cell free assay, the placental cytosolic enzyme was used; from tissue; host or cells: human placenta, cytosolic fraction, ammonium sulfate precipitate
T1 sequence (P14061 1-328): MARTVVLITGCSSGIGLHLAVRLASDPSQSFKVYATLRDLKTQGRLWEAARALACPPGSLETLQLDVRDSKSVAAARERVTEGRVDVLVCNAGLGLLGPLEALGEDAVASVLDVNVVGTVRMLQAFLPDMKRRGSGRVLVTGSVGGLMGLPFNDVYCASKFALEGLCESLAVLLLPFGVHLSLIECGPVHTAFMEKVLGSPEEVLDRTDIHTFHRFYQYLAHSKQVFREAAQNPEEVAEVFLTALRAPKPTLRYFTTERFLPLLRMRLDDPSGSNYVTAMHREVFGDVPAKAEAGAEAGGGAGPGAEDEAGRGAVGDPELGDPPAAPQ
Method: In the cell free assay, the placental cytosolic enzyme was used. Tritiated E1 (final concentration: 500 nM) was incubated with 17β-HSD1, NADH (500 µM), and inhibitor as previously described [59]. After high performance liquid chromatography (HPLC) separation of substrate and product, the amount of labeled E2 formed was quantified.
Inhibitory activities were evaluated by an established method with minor modifications. Briefly, the enzyme preparation was incubated with NADH [500 µM] in the presence of potential inhibitors at 37 °C in a phosphate buffer (50 mM) supplemented with 20 % of glycerol and EDTA (1mM). Inhibitor stock solutions were prepared in DMSO. The final concentration of DMSO was adjusted to 1 % in all samples. The enzymatic reaction was started by addition of a mixture of unlabelled- and [2, 4, 6, 7-^3H]-E1 (final concentration: 500 nM, 0.15 µCi). After 10 min, the incubation was stopped with HgCl2 and the mixture was extracted with diethylether. After evaporation, the steroids were dissolved in acetonitrile. E1 and E2 were separated using acetonitrile/water (45:55) as mobile phase in a C18 reverse phase chromatography column (Nucleodur C18 Gravity, 3 µm, Macherey-Nagel, Düren) connected to a HPLC-system (Agilent 1100 Series, Agilent Technologies, Waldbronn). Detection and quantification of the steroids were performed using a radioflow detector (Berthold Technologies, Bad Wildbad). The conversion rate was calculated after analysis of the resulting chromatograms according to the following equation: % conversion = % E2/(% E2 + % E1) × 100. Each value was calculated from at least three independent experiments.

human 17β-HSD2 = molecular target: T2, human 17β-HSD2 (Homo sapiens, UniProt P37059); assay: 17β-HSD2 cell free assay (placental microsomal enzyme, [3H]E2 to E1, HPLC radiodetection); type: biochemical; details: for IC50: human placenta microsomal fraction, [3H]E2 + E2 500 nM, NAD+ 1500 µM, mean of three determinations; for SF, selectivity factor = IC50(17β-HSD2)/IC50(17β-HSD1): ratio of cell free IC50 values
T2 construct: 17β-HSD2 was obtained from the microsomal fraction; from tissue; host or cells: human placenta, microsomal fraction
T2 sequence (P37059 1-387): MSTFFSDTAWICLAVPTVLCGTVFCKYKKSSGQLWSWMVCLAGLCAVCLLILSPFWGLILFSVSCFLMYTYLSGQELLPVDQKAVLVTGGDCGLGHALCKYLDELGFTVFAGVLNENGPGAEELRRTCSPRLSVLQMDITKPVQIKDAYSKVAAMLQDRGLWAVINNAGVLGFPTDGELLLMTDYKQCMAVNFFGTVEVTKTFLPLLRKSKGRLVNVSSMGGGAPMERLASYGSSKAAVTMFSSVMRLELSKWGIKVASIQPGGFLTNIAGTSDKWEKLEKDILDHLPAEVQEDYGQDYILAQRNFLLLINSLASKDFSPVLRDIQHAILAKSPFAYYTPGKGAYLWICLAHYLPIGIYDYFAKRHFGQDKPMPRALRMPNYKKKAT
Method: Placental microsomal 17β-HSD2 was incubated with tritiated E2 (final concentration: 500 nM) in the presence of NAD^+ (1500 µM) and inhibitor. Separation and quantification of labeled substrate (E2) and product (E1) was performed by HPLC using radiodetection.
17β-HSD1 and 17β-HSD2 were obtained from human placenta according to previously described procedures. Fresh human placenta was homogenized and cytosolic fraction and microsomes were separated by centrifugation. For the partial purification of 17β-HSD1, the cytosolic fraction was precipitated with ammonium sulfate. 17β-HSD2 was obtained from the microsomal fraction.
Inhibition of 17β-HSD2. The 17β-HSD2 inhibition assay was performed similarly to the 17β-HSD1 procedure. The microsomal fraction was incubated with NAD^+ [1500 µM], test compound and a mixture of unlabelled- and [2, 4, 6, 7-^3H]-E2 (final concentration: 500 nM, 0.11 µCi) for 20 min at 37 °C. Further treatment of the samples and HPLC separation were carried out as mentioned above.
The conversion rate was calculated after analysis of the resulting chromatograms according to the following equation: % conversion = % E1/(% E1 + % E2) × 100.

17β-HSD1 = test system: 17β-HSD1; parameters: method as in PMID 12223444; details: recombinant protein, NADPH as cosubstrate; value as described; read-out: 17β-HSD1 IC50 (external reference); cited from earlier work
ERs = test system: ERs; parameters: method as in PMID 15743715, PMID 16728493; details: RBA(E2) = 100%; cited from earlier work

| inhibition at 1 µM (human 17β-HSD1) | 17β-HSD1 % inhib. (1µM) (human 17β-HSD1) | Structure (SMILES) | other results |
| --- | --- | --- | --- |
| 85% |  | O=C(c1ccc(O)cc1)c1nc2ccc(O)cc2s1 [Compound 14, (6-hydroxy-1,3-benzothiazol-2-yl)(4-hydroxyphenyl)methanone] | IC50 (human 17β-HSD1): 243 nM; IC50 (human 17β-HSD2): 2470 nM; SF, selectivity factor = IC50(17β-HSD2)/IC50(17β-HSD1) (human 17β-HSD2): 10 |
| 39% |  | O=C(Nc1nc2ccc(O)cc2s1)c1ccc(O)cc1 [Compound 20] |  |
| 27% |  | COc1ccc(C(=O)c2nc3ccc(O)cc3s2)cc1 [Compound 13, (6-hydroxy-1,3-benzothiazol-2-yl)(4-methoxyphenyl)methanone] |  |
| 31% |  | COc1ccc2nc(C(=O)Nc3cccc(O)c3)sc2c1 [Compound 17] |  |
|  | ni. | COc1ccc(C(=O)Nc2nc3ccc(O)cc3s2)cc1 [Compound 19] |  |
| 91% |  | O=C(c1cccc(O)c1)c1nc2ccc(O)cc2s1 [Compound 6, (6-hydroxy-1,3-benzothiazol-2-yl)(3-hydroxyphenyl)methanone] | IC50 (human 17β-HSD1): 44 nM; IC50 (human 17β-HSD2): 1040 nM; SF, selectivity factor = IC50(17β-HSD2)/IC50(17β-HSD1) (human 17β-HSD2): 24 |
|  | ni. | COc1cccc(C(=O)c2nc3ccc(OC)cc3s2)c1 [Compound 6i] |  |
|  | ni | COc1ccc2nc(C(=O)Nc3ccccc3O)sc2c1 [Compound 15] |  |
| 75% |  | O=C(c1cccc(O)c1)c1nc2ccccc2s1 [Compound 12, 1,3-benzothiazol-2-yl(3-hydroxyphenyl)methanone] | fold lower 17β-HSD1 inhibitory activity than 6 (human 17β-HSD1; compared with compound 6): 8 fold; IC50 (human 17β-HSD1): 365 nM; IC50 (human 17β-HSD2): 1360 nM; SF, selectivity factor = IC50(17β-HSD2)/IC50(17β-HSD1) (human 17β-HSD2): 4 |

The remaining lines, values behind:

| Structure (SMILES) | inhibition at 1 µM (human 17β-HSD1) | 17β-HSD1 % inhib. (1µM) (human 17β-HSD1) | other results |
| --- | --- | --- | --- |
| O=C(Nc1nc2ccc(O)cc2s1)c1cccc(O)c1 [Compound 21] | 83% |  | IC50 (human 17β-HSD2): 9260 nM |
| CSC(c1ccc(O)cc1)c1nc2ccc(O)cc2s1 (stereo not shown) [Compound 9] | 7% | ni |  |
| O=C(Nc1cccc(O)c1)c1nc2ccc(O)cc2s1 [Compound 18] | 40% |  | IC50 (human 17β-HSD1): 1310 nM; IC50 (human 17β-HSD2): 3810 nM; SF, selectivity factor = IC50(17β-HSD2)/IC50(17β-HSD1) (human 17β-HSD2): 3 |
| C[C@]12CC[C@@H]3c4ccc(O)cc4CC[C@H]3[C@@H]1C[C@H](CCCCCCCCC(=O)OCC1OC(n3cnc4c(N)ncnc43)C(O)C1O)[C@@H]2O (stereo partly shown) [EM-1745] |  |  | IC50 (17β-HSD1): 52 nM |
| COC(c1cccc(O)c1)c1nc2ccc(O)cc2s1 (stereo not shown) [Compound 8] | 13% |  |  |
| Oc1ccc(Cc2nc3ccc(O)cc3s2)cc1 [Compound 11] | 24% |  |  |
| C[C@]12CC[C@@H]3c4ccc(O)cc4CC[C@H]3[C@@H]1CCC2=O [Compound E1, estrone] |  |  | RBA for the ERs (ERs): about 10% |
| COc1ccc2nc(Cc3ccc(O)cc3)sc2c1 [Compound 10] |  | ni |  |
| O=S(=O)(Nc1nc2ccc(O)cc2s1)c1cccc(O)c1 [Compound 22] |  | inactive and ni |  |
| Oc1cccc(C(O)c2nc3ccc(O)cc3s2)c1 (stereo not shown) [Compound 7] | 28% |  |  |
| Oc1cccc(NC(=S)Nc2nc3ccc(O)cc3s2)c1 [Compound 24] | 62% | moderate inhibitory activity |  |
| O=C(Nc1ccccc1O)c1nc2ccc(O)cc2s1 [Compound 16] |  | ni |  |
| O=C(Cc1cccc(O)c1)Nc1nc2ccc(O)cc2s1 [Compound 25] |  | inactive and ni |  |
| Cc1nc(C(=O)c2cccc(O)c2)sc1CCO [Compound 5, [5-(2-hydroxyethyl)-4-methyl-1,3-thiazol-2-yl](3-hydroxyphenyl)methanone] | 34% |  |  |
| O=C(Nc1cccc(O)c1)Nc1nc2ccc(O)cc2s1 [Compound 23] |  | inactive and no inhibition and ni. |  |
